Patent US8178713B2, “Sulfur-containing phospholipid derivatives” (Pronovo Biopharma Norge AS, priority 2002, dated 2012)
Marks after values point to notes of the source that are not given here.

What was measured:
male Wistar rats [1] = assay: Effect of esterified and non-esterified TTA on plasma lipids, fed for 6 days; format: in vivo, rat; details: for plasma Triacylglycerol / plasma Cholesterol: fed at equimolar doses of TTA, 1 mmole/day/kg body weight; for plasma Triacylglycerol: control (0.5% CMC) 1.20 ± 0.35; for plasma Cholesterol: control (0.5% CMC) 1.84 ± 0.25
From the text: (§1) Male wistar rats (4-5 rats in each treatment group) were fed TTA, TTA-PC or TTA-TAG at equimolar doses of TTA (1 mmole/day/kg body weight) for 6 days. Control rats received only 0.5% CMC. The rats were sacrificed and evaluated for lipid lowering effects, increased fatty acid oxidation, and activity of key mitochondrian enzymes, carnitine palmitoyltransferase-II, 3-hydroxy-3-methylglutharyl-CoA synthase and fatty acyl-CoA oxidases.
(§2) Male Wistar Charles River rats weighing 200-250 g at the start of the experiment were housed in metal wire cages in a temperature (22±1° C.) and light-controlled (light from 7.00 a.m. to 7.00 p.m.) room. They were given free access to chow and water. They were fed a Standard Laboratory Rat Chow R-34-EWOS-ALAB (EWOS Sweden) grower rat maintenance chow. Two rats were housed per cage. The animals were acclimatized for at least 5 days before the start of the experiments. Weight gain and food intake were recorded daily. TTA and esterified TFAs (1,2-Di(1,2-Di(tetradecylthioacetoyl)-sn -glycero-3-phosphocholine (TTA-PC) and Glyceryl 1,2,3-Tri(tetradecylthioacetate) (triacylglycerol) (TTA-TAG)) were suspended in 0.5% carboxymethylcellulose (CMC) and administered by gastric intubation in a final volume of 0.8-1.2 ml once a day for 6 days.
At the end of the experiments the animals were anaesthetized with Fluorane (0.4 ml/100 g body weight) and cardiac puncture was performed to obtain blood samples in EDTA containing vacutainers. Plasma was prepared and triacylglycerol and cholesterol were measured using the Monotest enzymatic kit (Boehringer Mannheim, Germany).

male Wistar rats [2] = assay: Effect of esterified and non-esterified TTA on hepatic triacylglycerol content; format: in vivo, rat; details: 6 days; for hepatic Triacylglycerol content: fed 1 mmole TTA/day/kg body weight, control 3.71 ± 0.50
From the text: as §1, §2

[3] = system: Palmitoyl-CoA oxidation in rat liver homogenate; assay: Palmitoyl-CoA oxidation in rat liver homogenate after feeding; format: in vivo; details: fed 1 mmole TTA/day/kg, 6 days, control 0.75 ± 0.06
From the text: as §1
(§3) Male Wistar Charles River rats weighing 200-250 g at the start of the experiment were housed in metal wire cages in a temperature (22±1° C.) and light-controlled (light from 7.00 a.m. to 7.00 p.m.) room. They were given free access to chow and water. […] Weight gain and food intake were recorded daily. […]
(§4) Freshly isolated livers from individual male wistar rats, were homogenised in ice-cold sucrose buffer (0.25 M sucrose, 10 mM HEPES (pH 7.4) and 2 mM EDTA). […] Acid soluble products were measured in post-nuclear fractions, using [1-^14C]-palmitoyl-CoA (Radiochemical Centre, Amersham, England) as substrates as described in literature.^15 Carnitine palmitoyltransferase-II activities were measured in the mitochondrial fraction essentially as described by Bremer^16 and 3-hydroxy-3-methylglutharyl-CoA synthase was measured according to Clinkenbeard et al.^17 in the post-nuclear fraction. […]

[4] = system: mitochondrial carnitine palmitoyltransferase-II; assay: Mitochondrial carnitine palmitoyltransferase-II activity after feeding; format: in vivo, rat; details: mitochondrial fraction of liver; fed 1 mmole TTA/day/kg, 6 days; control 8.32 ± 1.42
From the text: as §1, §3, §4

[5] = system: 3-Hydroxy-3-methylglutharyl-CoA synthase; assay: 3-Hydroxy-3-methylglutharyl-CoA synthase activity in rat liver homogenate after feeding; format: in vivo; details: fed 1 mmole TTA/day/kg, 6 days; for 3-Hydroxy-3-methylglutharyl-CoA synthase Enzyme activity: rat liver homogenate, control 28.23 ± 4.43
From the text: as §1
Male Wistar Charles River rats weighing 200-250 g at the start of the experiment were housed in metal wire cages in a temperature (22±1° C.) and light-controlled (light from 7.00 a.m. to 7.00 p.m.) room. They were given free access to chow and water. They were fed a Standard Laboratory Rat Chow R-34-EWOS-ALAB (EWOS Sweden) grower rat maintenance chow. Two rats were housed per cage. The animals were acclimatized for at least 5 days before the start of the experiments. Weight gain and food intake were recorded daily. […]
Freshly isolated livers from individual male wistar rats, were homogenised in ice-cold sucrose buffer (0.25 M sucrose, 10 mM HEPES (pH 7.4) and 2 mM EDTA). […] Acid soluble products were measured in post-nuclear fractions, using [1-^14C]-palmitoyl-CoA (Radiochemical Centre, Amersham, England) as substrates as described in literature.^15 Carnitine palmitoyltransferase-II activities were measured in the mitochondrial fraction essentially as described by Bremer^16 and 3-hydroxy-3-methylglutharyl-CoA synthase was measured according to Clinkenbeard et al.^17 in the post-nuclear fraction. Fatty acyl-CoA oxidase was measured in the post-nuclear fraction by the coupled assay described by Small et al.^18 The production of hydrogen peroxide was measured by monitoring the increase in dichlorofluorescein absorbance in the presence of palmitoyl-CoA.

Fatty acyl-CoA oxidase = Fatty acyl-CoA oxidase activity in rat liver homogenate after feeding; format: in vivo; details: fed 1 mmole TTA/day/kg, 6 days, control 16.50 ± 4.74
From the text: as §1, §3, §4

Structure (SMILES) | decrease in plasma triacylglycerol and cholesterol levels compared to the control (largest decrease) (male Wistar rats [1]; fed 1 mmole TTA/day/kg) | plasma Triacylglycerol (male Wistar rats [1]) | plasma Cholesterol (male Wistar rats [1]) | hepatic Triacylglycerol content (male Wistar rats [2]) | decrease in the hepatic triacylglycerol level compared to the control (largest decrease) (male Wistar rats [2]; fed 1 mmole TTA/day/kg) | Palm-CoA oxidised [3] | carnitine palmitoyltransferase-II Enzyme activity [4] | increased 3-hydroxy-3-methylglutharyl-CoA synthase activity relative to that after feeding non-esterified TTA [5] | 3-Hydroxy-3-methylglutharyl-CoA synthase Enzyme activity [5] | Fatty acyl-CoA oxidase Enzyme activity (Fatty acyl-CoA oxidase)
CCCCCCCCCCCCCCSCC(=O)OC[C@H](COP(=O)([O-])OCC[N+](C)(C)C)OC(=O)CSCCCCCCCCCCCCCC [TTA-PC, 1,2-ditetradecylthioacetoyl-sn-glycero-3-phosphocholine] | 60% | 0.47 ± 0.21^a,b mmol/L | 0.74 ± 0.20^a mmol/L | 2.53 ± 0.43^a μmol/mg protein | 30% | 1.39 ± 0.15^a nmol/mg/min | 31.96 ± 2.63^a,b nmol/mg/min | more than three times as large | 97.77 ± 20.51^a,b nmol/mg/min | 129.48 ± 15.08^a,b nmol/mg/min
CCCCCCCCCCCCCCSCC(=O)OCC(COC(=O)CSCCCCCCCCCCCCCC)OC(=O)CSCCCCCCCCCCCCCC [TTA-TAG, 1,2,3-Tritetradecylthioacetoyl-sn-glycerol] | – | 0.56 ± 0.21^a mmol/L | 1.18 ± 0.12^a mmol/L | 2.88 ± 0.50^a μmol/mg protein | – | 1.37 ± 0.08^a nmol/mg/min | 17.88 ± 4.37^a nmol/mg/min | – | 40.35 ± 6.16^a nmol/mg/min | 49.87 ± 22.51^a nmol/mg/min
